Data published in ChEMBL document CHEMBL4261560, “Structure-optimized dihydropyranoindole derivative GIBH-LRA002 potentially reactivated viral latency in primary CD4+ T lymphocytes of chronic HIV-1 patients” (Medchemcomm, 2017).
Active and inactive are the calls of the source. The calls are words filed in the database; no cut-off is given here.

Assays:
[1] = system: Human immunodeficiency virus 1; test: Reactivation of latent HIV1 LTR-GFP infected in human Jurkat-Lat A10.6 cells assessed as increase in GFP-positive cells after 24 hrs by flow cytometry relative to control; format: functional
[2] = Cytotoxicity against human J-Lat cells at 100 uM; format: cell-based
[3] = Cytotoxicity against human J-Lat cells; format: cell-based
[4] = system: Simian immunodeficiency virus; test: Reactivation of Simian immunodeficiency virus mac239 latent provirus in primary CD4+ T lymphocytes isolated from infected rhesus monkey PBMC assessed as increase in msRNA level after 24 hrs by RT-PCR analysis; format: functional, organism-based
T cell [5] = test: Induction of monkey PBMC CD3+ T cells activation assessed as increase in CCR5 expression up to 500 uM after 24 hrs by flow cytometry; format: cell-based, Macaca mulatta; conditions: rhesus monkey
T cell [6] = test: Induction of monkey PBMC CD4+ T cells activation assessed as increase in CD69 expression up to 500 uM after 24 hrs by flow cytometry; format: cell-based, Macaca mulatta; conditions: rhesus monkey
T cell [7] = test: Induction of monkey PBMC CD4+ T cells activation assessed as increase in CCR5 expression up to 500 uM after 24 hrs by flow cytometry; format: cell-based, Macaca mulatta; conditions: rhesus monkey
T cell [8] = test: Induction of monkey PBMC CD4+ T cells activation assessed as increase in CD25 expression up to 500 uM after 24 hrs by flow cytometry; format: cell-based, Macaca mulatta; conditions: rhesus monkey
T cell [9] = test: Induction of monkey PBMC CD3+ T cells activation assessed as increase in CD69 expression up to 500 uM after 24 hrs by flow cytometry; format: cell-based, Macaca mulatta; conditions: rhesus monkey
[10] = system: Human immunodeficiency virus; test: Reactivation of HIV latent provirus in primary CD4+ T lymphocytes isolated from infected human PBMC assessed as increase in usRNA level at 10 to 100 uM after 24 hrs by RT-PCR analysis; format: functional, organism-based
[11] = system: Human immunodeficiency virus 1; test: Reactivation of latent HIV1 LTR-GFP infected in human Jurkat-Lat A10.6 cells assessed as GFP-positive cells at 100 uM after 24 hrs by flow cytometry (reference value: 5.06%); format: functional
[12] = system: Simian immunodeficiency virus; test: Reactivation of Simian immunodeficiency virus mac239 latent provirus in primary CD4+ T lymphocytes isolated from infected rhesus monkey PBMC assessed as increase in usRNA level after 24 hrs by RT-PCR analysis; format: functional, organism-based
PBMC = test: Cytotoxicity against PBMC (unknown origin) assessed as reduction in cell viability up to 500 uM by CCK8 assay; format: cell-based
T cell [13] = test: Induction of monkey PBMC CD3+ T cells activation assessed as increase in CD25 expression up to 500 uM after 24 hrs by flow cytometry; format: cell-based, Macaca mulatta; conditions: rhesus monkey
[14] = system: Human immunodeficiency virus; test: Reactivation of HIV latent provirus in primary CD4+ T lymphocytes isolated from infected human PBMC assessed as increase in msRNA level at 10 to 100 uM after 24 hrs by RT-PCR analysis; format: functional, organism-based
[15] = system: Human immunodeficiency virus 1; test: Reactivation of latent HIV1 LTR-GFP infected in human Jurkat-Lat A10.6 cells assessed as GFP-positive cells at 10 uM after 24 hrs by flow cytometry (reference value: 5.06%); format: functional
[16] = system: Human immunodeficiency virus; test: Reactivation of HIV latent provirus in primary CD4+ T lymphocytes isolated from infected human PBMC assessed as increase in usRNA level after 24 hrs by RT-PCR analysis; format: functional, organism-based
[17] = system: Human immunodeficiency virus; test: Reactivation of HIV latent provirus in primary CD4+ T lymphocytes isolated from infected human PBMC assessed as increase in msRNA level after 24 hrs by RT-PCR analysis; format: functional, organism-based
[18] = system: Human immunodeficiency virus 1; test: Reactivation of latent HIV1 LTR-GFP infected in human Jurkat-Lat A10.6 cells assessed as GFP-positive cells after 24 hrs by flow cytometry (reference value: 5.06%); format: functional

Q: Which results are given for CCOC(=O)[C@@]1(C(F)(F)F)C(C#N)=C(N)Oc2c1c1ccccc1n2C(=O)OC(C)(C)C?
A: fold change (FC) [1]: 1.5; Activity [2]: Toxic

Q: With CCOC(=O)C1(C(F)(F)F)C(C#N)=C(N)Oc2c1c1ccccc1n2C(=O)OC(C)(C)C (racemic) as the molecule, how does the “fold change (FC)” value [1] read?
A: 2.6

Q: And the “fold change (FC)” value [3]?
A: 1.8

Q: Which “fold change (FC)” value [1] does the source give for CCOC(=O)C1(C(F)(F)F)C(C#N)=C(N)Oc2[nH]c3ccccc3c21 (configuration not stated) here?
A: 2

Q: And the Activity [2]?
A: Toxic

Q: With CCOC(=O)C1(C(F)(F)F)C(C#N)=C(N)Oc2c1c1ccccc1n2C (configuration not stated) as the molecule, how does the Activity [4] read?
A: Dose-dependent effect

Q: What about the Activity (T cell [5]) of the same molecule?
A: Non-Toxic

Q: And the Activity (T cell [6])?
A: Non-Toxic

Q: And the “fold change (FC)” value [1]?
A: 4.4

Q: What about the “fold change (FC)” value [3] of the same molecule?
A: 1.3

Q: What about the Activity (T cell [7]) of the same molecule?
A: Non-Toxic

Q: What about the Activity (T cell [8]) of the same molecule?
A: Non-Toxic

Q: And the Activity (T cell [9])?
A: Non-Toxic

Q: What about the Activity [10] of the same molecule?
A: Active

Q: What about the Activity [11] of the same molecule?
A: 23%

Q: And the Activity [12]?
A: Dose-dependent effect

Q: What about the Activity (PBMC) of the same molecule?
A: Non-Toxic

Q: What about the Activity (T cell [13]) of the same molecule?
A: Non-Toxic

Q: What about the Activity [14] of the same molecule?
A: Active

Q: And the Activity [15]?
A: 9.16%

Q: Which Activity [4] does the source give for CCCC(CCC)C(=O)O [VALPROIC ACID] here?
A: inactive

Q: What about the Activity [16] of the same molecule?
A: inactive

Q: What about the Activity [17] of the same molecule?
A: inactive

Q: What about the Activity [12] of the same molecule?
A: inactive

Q: And the Activity [18]?
A: 25.7%

Q: Which “fold change (FC)” value [1] does the source give for CCOC(=O)C1(C(F)(F)F)C(C#N)=C(N)Oc2c1c1ccccc1n2Cc1ccccc1 (configuration not stated) here?
A: 1.9

Q: What about the Activity [2] of the same molecule?
A: Toxic

Q: Which results are given for COC(=O)C1(C(F)(F)F)C(C#N)=C(N)Oc2c1c1ccccc1n2C(=O)OC(C)(C)C (configuration not stated)?
A: fold change (FC) [1]: 2.1; fold change (FC) [3]: 2.6

Q: What does the source list for CC(C)(C)OC(=O)n1c2c(c3ccccc31)C(C(F)(F)F)C(C#N)=C(N)O2 (configuration not stated)?
A: fold change (FC) [1]: 0.25; fold change (FC) [3]: 3
